Earlier results, collected in patent US20200376001A1, “USE OF ANDROGEN FOR TREATING GASTROINTESTINAL DISORDERS” (priority 2012, published 2020).
Like-named read-outs stand apart in the source and are kept apart here.

Experiments:
[1] = molecular target: T1, Sex Hormone Binding Globulin (SHBG) (Homo sapiens, UniProt P04278); settings: greater than that of testosterone
T1 sequence (P04278 30-402): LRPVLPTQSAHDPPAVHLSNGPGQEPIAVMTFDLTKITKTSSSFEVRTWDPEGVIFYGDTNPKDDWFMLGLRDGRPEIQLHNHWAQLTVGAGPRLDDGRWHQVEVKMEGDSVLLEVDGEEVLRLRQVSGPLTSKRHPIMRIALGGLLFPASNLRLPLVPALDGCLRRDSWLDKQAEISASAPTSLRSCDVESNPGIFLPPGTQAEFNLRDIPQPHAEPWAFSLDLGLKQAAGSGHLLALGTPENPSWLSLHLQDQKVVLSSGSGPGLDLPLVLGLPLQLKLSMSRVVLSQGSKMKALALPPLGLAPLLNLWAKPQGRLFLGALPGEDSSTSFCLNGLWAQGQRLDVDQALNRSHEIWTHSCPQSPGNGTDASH

[2] = test system: Sex Hormone Binding Globulin (SHBG); settings: for decrease of SHBG (serum concentration): serum SHBG in the body after administration of synthetic androgen
[3] = compared with danazol

| Compound | affinity for SHBG relative to testosterone [1] | decrease of SHBG (serum concentration) [2] | decrease of SHBG (serum concentration) ([2]; listed as Danazol) | potency mg for mg relative to danazol ([2]; SHBG reduction, relative to danazol) | side effects and hirsutism [3] |
| --- | --- | --- | --- | --- | --- |
| C[C@]12CC[C@H]3[C@@H](CCC4=CC(=O)CC[C@@H]43)[C@@H]1CC[C@@H]2O [Nandrolone, nandrolone] | about three | – | – | – | – |
| C#C[C@]1(O)CC[C@H]2[C@@H]3CCC4=Cc5oncc5C[C@]4(C)[C@H]3CC[C@@]21C [danazol] | – | 80% | does this as well | – | – |
| C[C@]12Cc3c[nH]nc3C[C@@H]1CC[C@@H]1[C@@H]2CC[C@@]2(C)[C@H]1CC[C@]2(C)O [stanozolol] | – | 80% | – | 100 times | reduces side effects and hirsutism caused by danazol |
